Laboratory results from publication PMC11148045, “Structural basis for recognition of 26RFa by the pyroglutamylated RFamide peptide receptor” (Cell Discovery, 2024).
No end group written: not given here.

Legend:
[1] = molecular target: T1, QRFPR mutants (Homo sapiens, UniProt Q96P65, E203A); assay: 26RFa-induced calcium mobilization, receptor mutants; type: cell-based
T1 construct: expressed in transfected cells; host or cells: HEK293, transient transfection by electroporation
Experimental: (§1) The gene encoding the WT QRFPR, PrPRR, KISS1R, NPFF1R, or NPFF2R was subcloned into the pcDNA3.0 vector with the addition of an N-terminal HA tag. All of the mutations used for functional studies were generated by QuickChange PCR and verified by DNA sequencing.
(§2) HEK293 cells were obtained from ATCC (Manassas, VA, USA) and cultured in DMEM supplemented with 10% (v/v) FBS, 100 mg/L penicillin, and 100 mg/L streptomycin in 5% CO2 at 37 °C. For transient transfection, ~2.5 × 10^6 cells were mixed with 2 µg plasmids in 200 µL transfection buffer, and electroporation was carried out with a Scientz-2C electroporation apparatus (Scientz Biotech, Ningbo, China). The experiments were carried out 24 h after transfection.
(§3) For QRFPR, PrRPR, and KISS1R, HEK293 cells transfected with WT receptor or its mutants were seeded at a density of 4 × 10^4 per well into 96-well culture plates and incubated for 24 h at 37 °C in 5% CO2. For NPFF1R and NPFF2R, plasmids were transfected into HEK293 cells stably expressing Gα16. On the next day, cells were incubated with 2 μmol/L Fluo-4 AM in HBSS supplemented with 5.6 mmol/L D-glucose and 250 μmol/L sulfinpyrazone at 37 °C for 45 min. After washing, cells were added with 50 μL HBSS and incubated at room temperature for 10 min, then 25 μL agonist buffer was dispensed into the well using a FlexStation III microplate reader (Molecular Devices), and intracellular calcium change was recorded at an excitation wavelength of 485 nm and an emission wavelength of 525 nm. EC50 and Emax values for each curve were calculated by Prism 8.0 software (GraphPad Software).

[2] = molecular target: T2, QRFPR mutants (Homo sapiens, UniProt Q96P65, S108A); assay: as above; type: cell-based; conditions: HEK293, QRFPR S108^2.65A; HEK293, Fluo-4; mean ± S.E.M., n ≥ 3
T2 construct: expressed in transfected cells; host or cells: HEK293, transient transfection by electroporation
Experimental: as §1, §2, §3

[3] = molecular target: T3, QRFPR mutants (Homo sapiens, UniProt Q96P65, Q318A); assay: as above; type: cell-based; conditions: HEK293, QRFPR Q318^7.39A; HEK293, Fluo-4; mean ± S.E.M., n ≥ 3
T3 construct: expressed in transfected cells; host or cells: HEK293, transient transfection by electroporation
Experimental: as §1, §2, §3

[4] = molecular target: T4, QRFPR mutants (Homo sapiens, UniProt Q96P65, W111A); assay: as above; type: cell-based; conditions: HEK293, QRFPR W111^23.50A; HEK293, Fluo-4; mean ± S.E.M., n ≥ 3
T4 construct: expressed in transfected cells; host or cells: HEK293, transient transfection by electroporation
Experimental: as §1, §2, §3

[5] = molecular target: T5, QRFPR mutants (Homo sapiens, UniProt Q96P65, W205A); assay: as above; type: cell-based; conditions: HEK293, QRFPR W205^ECL2A; HEK293, Fluo-4; mean ± S.E.M., n ≥ 3
T5 construct: expressed in transfected cells; host or cells: HEK293, transient transfection by electroporation
Experimental: as §1, §2, §3

[6] = molecular target: T6, QRFPR mutants (Homo sapiens, UniProt Q96P65, L193A); assay: as above; type: cell-based
T6 construct: expressed in transfected cells; host or cells: HEK293, transient transfection by electroporation
Experimental: as §1, §2, §3

[7] = molecular target: T7, QRFPR mutants (Homo sapiens, UniProt Q96P65, C200A); assay: as above; type: cell-based; conditions: HEK293, QRFPR C200^ECL2A; HEK293, Fluo-4; mean ± S.E.M., n ≥ 3
T7 construct: expressed in transfected cells; host or cells: HEK293, transient transfection by electroporation
Experimental: as §1, §2, §3

[8] = molecular target: T8, QRFPR mutants (Homo sapiens, UniProt Q96P65, W286A); assay: as above; type: cell-based; conditions: HEK293, QRFPR W286^6.48A; HEK293, Fluo-4; mean ± S.E.M., n ≥ 3
T8 construct: expressed in transfected cells; host or cells: HEK293, transient transfection by electroporation
Experimental: as §1, §2, §3

[9] = molecular target: T9, QRFPR mutants (Homo sapiens, UniProt Q96P65, Y190A); assay: as above; type: cell-based; conditions: HEK293, QRFPR Y190^ECL2A; HEK293, Fluo-4; mean ± S.E.M., n ≥ 3
T9 construct: expressed in transfected cells; host or cells: HEK293, transient transfection by electroporation
Experimental: as §1, §2, §3

[10] = test system: QRFPR; conditions: cited from earlier work
Description: The 26RFa/QRFPR system plays critical roles in energy homeostasis. Uncovering the atomic details of 26RFa recognition and regulation of QRFPR is crucial for unraveling the function of QRFPR and developing effective treatments against obesity, diabetes, and eating disorders. […] The unique organization mode is crucial for the recognition of 26RFa by QRFPR. The C-terminal heptapeptide of 26R ...

[11] = test system: NPY1R and NPY4R; conditions: cited from earlier work
Description: Specifically, Arg25 and Arg35 in 26RFa and NPY/PP are exposed to a conserved polar environment that includes residues E^45.52, T^5.39, and D/E^6.59 in QRFPR and NPYRs. However, subtle differences exist in the special binding interactions between these arginines and conserved polar residues (Fig. 4d–f). Side chains of Arg35 in NPY/PP form a conserved salt bridge with D^6.59 and a hydrogen bond with T^5.39 (NPY1R and NPY4R) or a salt bridge with E^45.52 (NPY2R) (Fig. 4e, f). In 26RFa, Arg25 retains its salt bridge with E203^45.52 but fails to build a salt bridge with E297^6.59 (Fig. 3b). It is p ... || Phe26 in 26RFa and Tyr36 in NPY/PP show distinct binding characteristics for QRFRP and NPYRs, respectively. […] (Fig. 4e). However, in NPY2R, this hydrogen bond is absent due to the substitution of glutamine with leucine at position 5.46, which lacks a hydrogen bond donor (Fig. 4c, f). Similarly, QRFPR also has a leucine at position 5.46, which cannot form a corresponding hydrogen bond with Phe26 in 26RFa. Furthermore, in contrast to the notable impact of Q^5.46 on the NP ...

[12] = molecular target: T10, QRFPR (WT) (Homo sapiens, UniProt Q96P65); assay: 26RFa-induced calcium mobilization, wild-type receptor; type: cell-based; conditions: HEK293, Fluo-4 AM, ex 485/em 525 nm, mean ± S.E.M., at least three independent experiments
T10 construct: expressed in transfected cells; host or cells: HEK293, transient transfection by electroporation
Experimental: as §1, §2
as §3, with “For NPFF1R and NPFF2R, plasmids were transfected into HEK293 cells stably expressing Gα16. On the next day, cells were incubated with 2 μmol/L Fluo-4 AM in HBSS supplemented with 5.6 mmol/L D-glucose and 250 μmol/L sulfinpyrazone at 37 °C for 45 min.” left out

T1 sequence (Q96P65 whole entry E203A): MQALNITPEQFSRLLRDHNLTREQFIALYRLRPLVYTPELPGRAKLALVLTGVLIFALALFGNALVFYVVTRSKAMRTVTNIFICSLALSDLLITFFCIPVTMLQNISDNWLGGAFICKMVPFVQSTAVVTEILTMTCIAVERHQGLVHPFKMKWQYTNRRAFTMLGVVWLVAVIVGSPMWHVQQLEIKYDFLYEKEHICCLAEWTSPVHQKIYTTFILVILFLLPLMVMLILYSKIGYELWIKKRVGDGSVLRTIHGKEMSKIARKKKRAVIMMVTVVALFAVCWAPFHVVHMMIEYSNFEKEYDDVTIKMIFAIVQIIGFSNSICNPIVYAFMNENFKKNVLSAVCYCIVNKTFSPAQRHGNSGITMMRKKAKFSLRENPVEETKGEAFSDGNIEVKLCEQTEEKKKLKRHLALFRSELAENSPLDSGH
T6 sequence (Q96P65 whole entry L193A): as the sequence (Q96P65 whole entry E203A) above, with L193A, A203E counted along it
T4 sequence (Q96P65 whole entry W111A): as the sequence (Q96P65 whole entry E203A) above, with W111A, A203E counted along it
T9 sequence (Q96P65 whole entry Y190A): as the sequence (Q96P65 whole entry E203A) above, with Y190A, A203E counted along it
T5 sequence (Q96P65 whole entry W205A): as the sequence (Q96P65 whole entry E203A) above, with A203E, W205A counted along it
T10 sequence (Q96P65 whole entry): as the sequence (Q96P65 whole entry E203A) above, with A203E counted along it
T2 sequence (Q96P65 whole entry S108A): as the sequence (Q96P65 whole entry E203A) above, with S108A, A203E counted along it
T3 sequence (Q96P65 whole entry Q318A): as the sequence (Q96P65 whole entry E203A) above, with A203E, Q318A counted along it
T8 sequence (Q96P65 whole entry W286A): as the sequence (Q96P65 whole entry E203A) above, with A203E, W286A counted along it
T7 sequence (Q96P65 whole entry C200A): as the sequence (Q96P65 whole entry E203A) above, with C200A, A203E counted along it

ASGPLGTLAEELSSYSRRKGGFSFRF-NH2 [26RFa]
effect of E^45.52 to alanine ([1]; 26RFa, QRFPR): remarkable decline of activity or potency | Emax ([1]; HEK293, QRFPR E203^45.52A, HEK293, Fluo-4, mean ± S.E.M., n ≥ 3): 96.9 ± 0.64% | Emax [2]: 51.7 ± 0.73% | Emax [3]: 1.69 ± 0.66% | Emax [4]: 73.4 ± 1.7% | Emax [5]: 2.58 ± 1.2% | Emax ([6]; HEK293, QRFPR L193^ECL2A, HEK293, Fluo-4, mean ± S.E.M., n ≥ 3): 66.8 ± 0.54% | effect of mutation on peptide activity ([6]; QRFPR L193A): remarkable decline in peptide activity | Emax [7]: 88.5 ± 1.2% | Emax [8]: 1.8 ± 0.38% | Emax [9]: 23.6 ± 0.22% | selectivity for QRFPR [10]: high selectivity of 26RFa for QRFPR | role of amide-surrounding residues (C^2.57, T^2.61, Q^3.32, Q/H^7.39) in activity [11]: critical for 26RFa and NPY/PP activities | Emax [12]: 100 ± 1%
